US4853401A, “Spiro-hydantoins as aldose reductase inhibitors” (priority 1987, dated 1989)

Columns and labels:
[1] = Acute oral toxicity (LD50); assay type: in vivo; conditions: mouse, in vivo, mice, read-out: Lethal dose LD50
Description: (§1) The LD 50 was calculated by the method of Litchfield and Wilcoxon (J. Pharmacol. Exp. Ther., 96, 99, 1949) and is expressed in mg/kg. The products were orally administered to mice.
(§2) Behaviour was studied, 2, 4, 6 and 24 hours after treatment. Observation was continued if symptoms persisted at that time. Deaths were recorded during the 14 days after treatment. The results are given in Table II, in which the numbers of the compounds are the same as the numbers given in column 1 of Table I.

mice [2] = assay: Effect on behaviour (Irwin method), side effects; assay type: in vivo
Description: The effect on behaviour was studied by a method derived from that of S. Irwin (Gordon Res. Conf. on Medicinal Chem., 133, 1959). The substances, suspended in 1% tragacanth mucilage, were orally administered via an intra-gastric probe to groups of 5 male mice fasted for 18 hours. The maximum tested dose was 3 000 mg/kg or 1 000 mg/kg, and smaller doses were tested if an effect has been observed.
as §2

aldose reductase = target: T1, aldose reductase (Rattus norvegicus, UniProt P07943); assay: Inhibition of enzymatic activity of aldose reductase in vitro; assay type: biochemical; conditions: 10^-4 M, rat crystalline lens enzyme, pH 6.2, D,L-glyceraldehyde substrate; read-out: Inhibition of enzymatic activity of AR in vitro
T1 construct: The supernatant liquid formed the enzyme solution used for the test; from tissue; host or cells: rat crystalline lens, water homogenate, supernatant
Source text: 1.1 Inhibiting effect on enzymatic activity of aldose reductase:
The method described by S. Hayman and J. H. Kinoshita (J. Biol. Chem., 240, 877 (1965)) was used for in vitro testing of the aforementioned effect of the products according to the invention.
Rat's crystalline lens was homogenized in water and centrifuged to eliminate insoluble substances. The supernatant liquid formed the enzyme solution used for the test.
(§3) The effect of products according to the invention in inhibiting enzymatic activity of aldose reductase was determined by spectrophotometrically following for 5 minutes the disappearance of NADPH in an aqueous solution containing 0.067M phosphate buffer (final pH: 6.2), 0.40M lithium sulphate, 5.10^-5 M NADPH, 10^-4 M of the product under test and 100 μl of the enzyme solution, to which 10^-2 M of D,L-glyceraldehyde had been added as substrate. (NADPH=reduced form of nicotinamide adenine dinucleotide phosphate).
The inhibiting effect observed in the presence of 10^-4 M of product under test relative to the reaction in the absence of a compound according to the invention, is expressed as a percentage.

[3] = system: accumulation of galactitol in fibroblasts obtained from human skin; assay: Inhibition of accumulation of galactitol in fibroblasts; assay type: cell-based; conditions: Fibroblast, 48 h, 37° C., galactose 3 mg/ml
Description: 1.2 Inhibiting effect on accumulation of galactitol:
A test for evaluating this activity was made in vitro on fibroblasts obtained from human skin.
An experimental model culture was obtained by incubating the cells in the presence of a medium containing a high concentration of galactose (3 mg/ml) and the product under test, and measuring the accumulation of galactitol in the cells after a 48-hour incubation period at 37° C. The cells were then isolated, washed in physiological salt solution and treated with a water-ethanol solution. The medium was centrifuged and the supernatant liquid was lyophylized.
The galactitol in the resulting sample was determined by HPLC (=high pressure liquid chromatography) after derivatives had been obtained with phenyl isocyanate.
The proportion of proteins in the precipitate obtained during the previously-mentioned centrifuging was measured by the method of M. M. Bradford (Anal. Biochem., 72, 248-254 (1976)) and indicated the number of cells present in the sample.
The inhibiting effect of the tested product was expressed as a percentage inhibition of intracellular accumulation of galactitol compared with the controls.

[4] = system: accumulation of sorbitol in the crystalline lenses; assay: Inhibition of accumulation of sorbitol in crystalline lenses of diabetic rats; assay type: in vivo, Sprague Dawley rats; conditions: for Inhibition of accumulation of sorbitol in vivo, crystalline lenses: oral 25 mg/kg at 0, 7 and 24 h, sacrificed 27 h
Description: (§4) 2.1 Inhibition of accumulation of sorbitol in crystalline lenses and nerves of diabetic rats:
(§5) The effects of the products according to the invention on the proportion of plasma glucose and the accumulation of sorbitol in the crystalline lenses and sciatic nerves of rats made diabetic by streptozotocin were examined by the method of M. J. Peterson, et al (Metabolism, 28, 456-461 (1979)).
(§6) Fasted Sprague Dawley rats were made diabetic by intraperitoneal injection of streptozotocin (75 mg/kg). The product under test was orally administered at a dose of 25 mg/kg after 0, 7 and 24 hours. The rats were sacrificed 27 hours after induction of diabetes. The crystalline lenses and sciatic nerves were taken and preserved at -20° C. until analysed. The crystalline lenses and sciatic nerves were homogenized in water and the proteins were precipitated from ethanol. The precipitate was eliminated by centrifuging and the supernatant liquid was lyophylised. The sorbitol in the sample was determined by the method of B. Bjorkqvist (J. of Chromatograph, 218, 65-71 (1981)), adapted by A. Lenaers et al. (Arch. Intern. Physiol. Bioch., 91, B, 62-63 (1983)).
(§7) The sample was dissolved in pyridine containing galactitol as an internal standard. Derivatives were formed therefrom by phenylisocyanate during incubation for 1 hour at 60° C. The reaction was then stopped by adding methanol and the derivatives were separated and determined by HPLC.
(§8) The results are expressed as percentage inhibition of the accumulation of sorbitol, compared with the controls.

[5] = system: accumulation of sorbitol in the sciatic nerves; assay: Inhibition of accumulation of sorbitol in sciatic nerves of diabetic rats; assay type: in vivo, Sprague Dawley rats; conditions: oral 25 mg/kg at 0, 7 and 24 h, sacrificed 27 h
Description: as §4, §5, §6, §7, §8

[6] = system: sorbitol accumulation in crystalline lenses; assay: Effect of in vivo doses on sorbitol accumulation in crystalline lenses of diabetic rats; design: species or system Sprague Dawley rats; conditions: for ED50: Rattus norvegicus, 27 h, diabetic rats, oral, read-out: ED50 (dose at which measured inhibition of aldose reductase activity is 50%); for ED50 / therapeutic index MED/ED50, crystalline lenses: crystalline lenses
Source text: (§9) 2.2 Effect of "in vivo" doses on sorbitol accumulation in sciatic nerves and crystalline lenses of diabetic rats:
(§10) Estimates were made of the effects of the products on the proportion of plasma glucose and the sorbitol content of the crystalline lenses and sciatic nerves of rats.

[7] = system: sorbitol accumulation in sciatic nerves; assay: Effect of in vivo doses on sorbitol accumulation in sciatic nerves of diabetic rats; design: species or system Sprague Dawley rats; conditions: for ED50: Rattus norvegicus, 27 h, diabetic rats, oral, read-out: ED50 (dose at which measured inhibition of aldose reductase activity is 50%); for ED50 / therapeutic index MED/ED50, sciatic nerves: sciatic nerves
Source text: as §9, §10

[8] = Effect of in vivo doses on plasma glucose of diabetic rats; design: species or system Sprague Dawley rats; conditions: n = 5, average ± standard deviation
Description: Compound No. 1 (CP 3182 AR) and No. 2 (CP 3192 AR) were evaluated at various doses, using the experimental model described hereinbefore (.sctn.2.1).
In the case of each product, 25 Sprague Dawley rats fasted the previous day were made diabetic by an intraperitoneal injection of streptozotocin (75 mg/kg). The rats were divided into 5 groups of 5, each orally given 0.3, […] or 10 mg/kg of CP 3182 AR or a control.
An identical experiment was performed with CP 3192 AR at the same doses. Treatment was given immediately after the streptozotocin, and 7 and 24 hours later. The animals were sacrificed 27 hours after induction. Estimates were made of the effects of the products on the proportion of plasma glucose and the sorbitol content of the crystalline lenses and sciatic nerves of rats.

[9] = Solubility in the aldose reductase test medium; assay type: physicochemical; conditions: 10^-4 M, aqueous phosphate buffer pH 6.2
Description: as §3

mice [10] = assay: Acute oral toxicity (LD50); assay type: in vivo; conditions: 3 000 mg/kg
Description: as §1, §2

In the case of `O=C1N(CO)C(=O)C2(c3ccccc3-c3ccccc32)N1CO` [Compound 1, bis-(1',3'-hydroxymethyl)-spiro-/fluorene-9,4'-imidazolidine/-2',5'-dione], the LD50 at 336 h [1] was over 3000 mg/kg, the side effect observed (mice [2]; dose of 3000 mg/kg) was “no side effect was observed” and the “MED (minimum dose at which a side effect is observed)” value (mice [2]; mice, oral) was > 3 000 mg/kg. For the same compound, the inhibition at 100 µM (aldose reductase) was 34%, the inhibition at 100 µM ([3]; 10^-4 M) was 85% and the inhibition at 10 µM ([3]; 10^-5 M) was 58%. For the same compound, the inhibition at 1 µM ([3]; 10^-6 M) was 21%, the “Inhibition of accumulation of sorbitol in vivo, crystalline lenses” value (“Inhibition … in vivo, crystalline lenses” below) [4] was 81% and the “inhibition of accumulation of sorbitol in crystalline lenses and sciatic nerves (in words)” value ([4]; oral 25 mg/kg, lenses and sciatic nerves) was “particularly active”. For the same compound, the “Inhibition of accumulation of sorbitol in vivo, in sciatic nerves” value (“Inhibition … in sciatic nerves” below) [5] was 85%, the “% inhibition of sorbitol accumulation, Crystalline lenses” value (“% inhibition … Crystalline lenses” below) ([6]; 0.3 mg/kg oral at 0, 7, 24 h) was 0 ± 21% and the “% inhibition … Crystalline lenses” value ([6]; 1 mg/kg oral at 0, 7, 24 h) was 1 ± 3%. The “% inhibition … Crystalline lenses” value ([6]; 3 mg/kg oral at 0, 7, 24 h) was 41%, the “% inhibition … Crystalline lenses” value ([6]; 10 mg/kg oral at 0, 7, 24 h) was 71% and the ED50 [6] was 3 mg/kg. The “therapeutic index MED/ED50, crystalline lenses” value [6] was “about 1 000”, the “% inhibition of sorbitol accumulation, Sciatic nerves” value (“% inhibition … Sciatic nerves” below) ([7]; 0.3 mg/kg oral at 0, 7, 24 h) was 29 ± 14% and the “% inhibition … Sciatic nerves” value ([7]; 1 mg/kg oral at 0, 7, 24 h) was 41 ± 10%. For the same compound, the “% inhibition … Sciatic nerves” value ([7]; 3 mg/kg oral at 0, 7, 24 h) was 69 ± 8%, the “% inhibition … Sciatic nerves” value ([7]; 10 mg/kg oral at 0, 7, 24 h) was 82 ± 6% and the ED50 [7] was 1 mg/kg. For the same compound, the “therapeutic index MED/ED50, sciatic nerves” value [7] was “above 3 000”, the Plasma glucose ([8]; 0.3 mg/kg oral) was 462 ± 60 mg/100 ml and the Plasma glucose ([8]; 1 mg/kg oral) was 538 ± 34 mg/100 ml. The Plasma glucose ([8]; 3 mg/kg oral) was 464 ± 62 mg/100 ml and the Plasma glucose ([8]; 10 mg/kg oral) was 424 ± 37 mg/100 ml.
For `O=C(Cc1ccccc1)OCN1C(=O)N(COC(=O)Cc2ccccc2)C2(C1=O)c1ccccc1-c1ccccc12` [Compound 23], the “Inhibition … in vivo, crystalline lenses” value [4] was 5%, the “Inhibition … in sciatic nerves” value [5] was 7% and the “insolubility in the tested medium” value [9] was “insol”.
For `O=C1NC(=O)[C@@]2(CCOc3ccc(F)cc32)N1` [sorbinil, d-6-fluoro-spiro-/chromane-4,4'-imidazolidine/-2',5'-dione, reference compound], the LD50 at 336 h [1] was 1450 mg/kg, the mortality (mice [10]) was “all the mice died on the second day” and the “MED (minimum dose at which a side effect is observed)” value (mice [2]; mouse, in vivo, po) was 300 mg/kg. For the same compound, the “duration of side effects” value (mice [2]; mouse, in vivo, po, 300 mg/kg) was “more than 24 hours”, the side-effects (mice [2]; mouse, in vivo, po, 300 mg/kg) was “depression with loss of righting reflex and muscular hypotonia” and the “Inhibition … in vivo, crystalline lenses” value [4] was 93%. The “Inhibition … in sciatic nerves” value [5] was 85%, the ED50 [6] was 1 mg/kg and the “therapeutic index MED/ED50, crystalline lenses” value [6] was 300. The ED50 [7] was 1 mg/kg and the “therapeutic index MED/ED50, sciatic nerves” value [7] was 300.
